The target in one experiment is HLA-DRB1*15:01 (Homo sapiens, UniProt P01903+P01911). The experiment in a line: biochemical. The experiment is classed as binding. Particulars: read-out: in vitro binding capacity (IC50), DRB1*15:01.
The subject of the next experiment is CD4+ T cells. The format is cell-based, human.
Another experiment addresses T1, HLA-DPB1*04:01 (Homo sapiens, UniProt P04440+P20036).
T1 sequence (P04440 30-258): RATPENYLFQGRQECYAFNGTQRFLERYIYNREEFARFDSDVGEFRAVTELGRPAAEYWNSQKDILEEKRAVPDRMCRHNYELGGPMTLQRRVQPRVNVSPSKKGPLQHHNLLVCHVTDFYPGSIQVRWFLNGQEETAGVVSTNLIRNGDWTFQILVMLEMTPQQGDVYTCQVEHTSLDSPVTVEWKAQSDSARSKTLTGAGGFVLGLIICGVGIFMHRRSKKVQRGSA
T1 sequence (P20036 29-260): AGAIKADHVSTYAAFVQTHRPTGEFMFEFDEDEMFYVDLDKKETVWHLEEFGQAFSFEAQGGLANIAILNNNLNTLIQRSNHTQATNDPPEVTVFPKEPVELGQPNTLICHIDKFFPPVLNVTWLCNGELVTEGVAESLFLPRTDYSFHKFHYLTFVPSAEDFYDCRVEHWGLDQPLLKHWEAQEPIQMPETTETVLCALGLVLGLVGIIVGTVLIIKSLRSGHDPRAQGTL
Briefly: In vitro HLA binding (data not shown).

A further experiment deals with HLA-DPB1*04:02. Briefly: In vitro HLA binding (data not shown). Also noted: species or system human.

Each structure is given as a SMILES string.

One may read the IC50 as the point on the concentration scale where inhibition reaches its midpoint. `CC(C)C[C@H](NC(=O)[C@H](Cc1ccccc1)NC(=O)[C@@H]1CCCN1C(=O)[C@H](CC(=O)O)NC(=O)[C@H](CC(N)=O)NC(=O)[C@H](CS)NC(=O)[C@H](Cc1ccccc1)NC(=O)[C@H](CCC(N)=O)NC(=O)[C@H](Cc1ccccc1)NC(=O)[C@H](CCC(=O)O)NC(=O)[C@@H](N)CS)C(=O)NCC(=O)N[C@H](C(=O)N[C@@H](Cc1ccc(O)cc1)C(=O)N[C@@H](Cc1ccc(O)cc1)C(=O)O)C(C)C` [peptide 27]: the IC50 at HLA-DRB1*15:01 was 7.65 µM. Besides, the “responding patients, DRB1*01:01” value with CD4+ T cells (responders / study participants carrying DRB1*01:01, CD4+ IFN-γ response, peptide 10 μg mL−1, after 14 days expansion) was 4/6. Also, the “responding patients, DRB1*03:01” value with CD4+ T cells (responders / study participants carrying DRB1*03:01, CD4+ IFN-γ response, peptide 10 μg mL−1, after 14 days expansion) is 2/3. For the same molecule, the “responding patients, DRB1*04:01” value in the experiment on CD4+ T cells (responders / study participants carrying DRB1*04:01, CD4+ IFN-γ response, peptide 10 μg mL−1, after 14 days expansion) is reported as 4/4. Besides, the “responding patients, DRB1*07:01” value with CD4+ T cells (responders / study participants carrying DRB1*07:01, CD4+ IFN-γ response, peptide 10 μg mL−1, after 14 days expansion) was 5/8. Also, the “responding patients, DRB1*11:01” value in the experiment with CD4+ T cells (responders / study participants carrying DRB1*11:01, CD4+ IFN-γ response, peptide 10 μg mL−1, after 14 days expansion) is reported as 3/3. Also, the “responding patients, DRB1*12:01” value in the experiment with CD4+ T cells (responders / study participants carrying DRB1*12:01, CD4+ IFN-γ response, peptide 10 μg mL−1, after 14 days expansion) is recorded as 0/1. In the experiment with CD4+ T cells (responders / study participants carrying DRB1*15:01, CD4+ IFN-γ response, peptide 10 μg mL−1, after 14 days expansion), the “responding patients, DRB1*15:01” value is 3/7. Besides, the “response frequency (RF) / recognition rate of CD4+ T-cell response” value in the experiment with CD4+ T cells (share of the 35 participants with a CD4+ IFN-γ response to the peptide) stood at 64%. Moreover, on HLA-DPB1*04:01, the “binding to HLA-DPB1*04:01” value is “high affinity”. Also, the “binding to HLA-DPB1*04:02” value in the experiment with HLA-DPB1*04:02 is recorded as “high affinity”.

The values above are taken from article PMC9363231, “High‐resolution analysis of individual spike peptide‐specific CD4 ^+ T‐cell responses in vaccine recipients and COVID‐19 patients” (Clinical & Translational Immunology, 2022).
